Source: patent US12070513B2, “PSMA-binding agents and uses thereof” (The Johns Hopkins University, priority 2008, dated 2024)
“And” between values parts separate entries of the source, which are not always exact repeats. Equal values may be shown once. “Also recorded” adds a separate entry of the source.

Key:
[1] = test system: PC-3 PIP (PSMA+) and PC-3 flu (PSMA−) xenograft-bearing SCID mice; experiment: Ex vivo biodistribution in tumor-bearing mice
[2] = target: NAALADase (PSMA) prepared from LNCaP cell lysates (Homo sapiens (Human), UniProt Q04609); experiment: NAALADase (radiometric) assay, NAAG hydrolysis; format: biochemical; settings: [3H]NAAG 30 nM
[3] = target: PSMA, lysates of LNCaP cell extracts (Homo sapiens (Human), UniProt Q04609); experiment: fluorescence-based PSMA inhibition assay (Amplex Red glutamic acid kit); format: biochemical; settings: 4 μM NAAG
[4] = test system: PC-3 PIP and PC-3 flu xenografts in SCID mouse; experiment: PET-CT imaging of [18F]6; format: in vivo; settings: 94-120 min p.i., PC-3 PIP and PC-3 flu tumors
Description: Compound [^18F]6. In vivo PET-CT: A SCID mouse bearing subcutaneous PC-3 PIP and PC-3 flu xenografts was anesthetized using 3% isoflurane in oxygen for induction and 1.5% isoflurane in oxygen at 0.8 L/min flow for maintenance and positioned prone on the gantry of a GE eXplore Vista small animal PET scanner (GE Healthcare, Milwaukee, Wis.). The mouse was injected intravenously with 7.4 MBq (200 μCi) of [^18F]6 followed by image acquisition using the following protocol: The images were acquired as a pseudodynamic scan, i.e., a sequence of successive whole-body images acquired in three bed positions for a total of 90 min. The dwell time at each position was 5 minutes, such that a given bed position (or mouse organ) was revisited every 15 min. An energy window of 250-700 keV was used. Images were reconstructed using the FORE/2D-OSEM method (2 iterations, 16 subsets) and included corrections for radioactive decay, scanner dead time and scattered radiation.

[5] = Stability of radiolabeled product after synthesis; format: physicochemical; settings: after radiosynthesis and HPLC
Description: Synthesis of 2-[3-(1-carboxy-5-{4-[N′-(4-[^18F]fluoro-benzylidene)-hydrazino]-benzoylamino}-pentyl)-ureido]-pentanedioic acid (^18F]12). 4-[^18F]fluorobenzaldehyde was synthesized by using a known procedure (Nuclear Medicine and Biology 33 (2006) 677-683). To the crude DMSO solution of 4-[^18F]fluorobenzaldehyde was added 1-2 mg of compound 14, 0.2 mL of 50 mM KH2PO4. The vial was closed and heated at 90° C. for […]. The reaction mixture was then purified by HPLC (Ecomosphere C18 10μ, 250×10 mm, H2O/CH3CN/TFA [70/30/0.1], 4 mL/min). The radiochemical yield (decay corrected and based on starting [^18F] fluoride, n=2) was 30-55%. […] The specific activity of final compound was not determined.

[6] = test system: PC-3 PIP and PC-3 flu xenografts in SCID mouse; experiment: SPECT-CT imaging of [125I]3 in PCa tumor models; format: in vivo; settings: 4 h p.i., PC-3 PIP and PC-3 flu tumors
Description: At 4 and 6 h p.i. the mouse was anesthetized with isoflurane and maintained under 1% isoflurane in oxygen. The mouse was positioned on the X-SPECT (Gamma Medica, Northridge, Calif.) gantry and was scanned using two low energy, high-resolution pinhole collimators (Gamma Medica) rotating through 360° in 6° increments for 45 seconds per increment. All gamma images were reconstructed using Lunagem software (Gamma Medica, Northridge, Calif.) Immediately following SPECT acquisition, the mice were then scanned by CT (X-SPECT) over a 4.6 cm field-of-view using a 600 μA, 50 kV beam. […] Data were reconstructed using the Ordered Subsets-Expectation Maximization (OS-EM) algorithm.

PSMA, lysates of LNCaP cell extracts, sequence (Q04609 whole entry): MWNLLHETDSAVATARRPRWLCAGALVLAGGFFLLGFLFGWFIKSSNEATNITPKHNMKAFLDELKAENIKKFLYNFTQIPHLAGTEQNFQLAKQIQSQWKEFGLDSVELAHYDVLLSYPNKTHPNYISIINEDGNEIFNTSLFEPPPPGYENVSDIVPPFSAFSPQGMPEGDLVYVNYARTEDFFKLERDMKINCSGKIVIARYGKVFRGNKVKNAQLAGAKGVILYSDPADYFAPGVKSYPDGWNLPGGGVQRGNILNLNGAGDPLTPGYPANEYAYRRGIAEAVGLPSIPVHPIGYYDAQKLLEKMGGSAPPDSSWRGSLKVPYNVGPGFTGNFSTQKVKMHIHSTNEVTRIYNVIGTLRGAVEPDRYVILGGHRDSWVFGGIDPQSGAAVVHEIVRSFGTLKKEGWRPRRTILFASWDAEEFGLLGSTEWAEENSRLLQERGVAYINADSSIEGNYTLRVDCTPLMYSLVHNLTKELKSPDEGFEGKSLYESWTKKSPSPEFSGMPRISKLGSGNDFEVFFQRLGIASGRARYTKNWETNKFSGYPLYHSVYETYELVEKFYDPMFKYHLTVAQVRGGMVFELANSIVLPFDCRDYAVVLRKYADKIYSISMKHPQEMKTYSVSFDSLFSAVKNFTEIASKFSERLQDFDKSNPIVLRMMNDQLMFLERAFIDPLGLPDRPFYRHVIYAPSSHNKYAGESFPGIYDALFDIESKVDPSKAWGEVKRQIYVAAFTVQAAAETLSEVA

## O=C(O)CCC(NC(=O)NC(CCCCNC(=O)c1ccc(F)cc1)C(=O)O)C(=O)O (stereo not drawn) [Compound 6, 2-{3-[1-Carboxy-5-(4-fluoro-benzoylamino)-pentyl]-ureido}-pentanedioic acid]
[1]; 5 h p.i.
  PIP:flu ratio: 31
[2]
  Ki: 0.256 nM
[3]
  Ki: 0.194 nM

## O=C(O)CCC(NC(=O)NC(CCCCNC(=O)c1ccc([18F])cc1)C(=O)O)C(=O)O (stereo not drawn) [[^18F]6, 2-{3-[1-carboxy-5-(4-[^18F]fluoro-benzoylamino)-pentyl]-ureido}-pentanedioic acid]
[1]; 30 min p.i.
  PC-3 PIP tumor uptake: 8.58±3.09 % ID/g and 8.6 ± 3.1 % ID/g
  PC-3 flu tumor uptake: 0.8 ± 0.3 % ID/g
  PIP tumor:bladder ratio: (1)
  PIP tumor:blood ratio: (3)
  PIP tumor:heart ratio: (11)
  PIP tumor:kidney ratio: (0.1)
  PIP tumor:large intestine ratio: (7)
  PIP tumor:liver ratio: (1)
  PIP tumor:lung ratio: (5)
  PIP tumor:muscle ratio: (4)
  PIP tumor:pancreas ratio: (11)
  PIP tumor:small intestine ratio: (5)
  PIP tumor:spleen ratio: (0.7)
  PIP tumor:stomach ratio: (11)
  PIP:flu ratio: 11
  bladder uptake: 6.8 ± 3.5 % ID/g
  blood uptake: 2.5 ± 1.7 % ID/g
  heart uptake: 0.8 ± 0.1 % ID/g
  kidney uptake: 72.05±3.19 % ID/g and 72 ± 3 % ID/g
  large intestine uptake: 1.2 ± 0.8 % ID/g
  liver uptake: 8.7 ± 1.8 % ID/g
  lung uptake: 1.7 ± 0.3 % ID/g
  muscle uptake: 2.4 ± 3.1 % ID/g
  pancreas uptake: 0.8 ± 0.1 % ID/g
  small intestine uptake: 1.7 ± 0.7 % ID/g
  spleen uptake: 12.67±0.36 % ID/g and 12.7 ± 0.4 % ID/g
  stomach uptake: 0.8 ± 0.1 % ID/g
[1]; 60 min p.i.
  PC-3 PIP tumor uptake: 6.4 ± 0.9 % ID/g
  PC-3 flu tumor uptake: 0.3 ± 0.05 % ID/g
  PIP tumor:bladder ratio: (0.4)
  PIP tumor:blood ratio: (9)
  PIP tumor:heart ratio: (35)
  PIP tumor:kidney ratio: (0.1)
  PIP tumor:large intestine ratio: (13)
  PIP tumor:liver ratio: (1)
  PIP tumor:lung ratio: (13)
  PIP tumor:muscle ratio: (13)
  PIP tumor:pancreas ratio: (21)
  PIP tumor:small intestine ratio: (11)
  PIP tumor:spleen ratio: (1)
  PIP tumor:stomach ratio: (26)
  PIP:flu ratio: 21
  bladder uptake: 17 ± 21 % ID/g
  blood uptake: 0.7 ± 0.5 % ID/g
  heart uptake: 0.2 ± 0.02 % ID/g
  kidney uptake: 48 ± 5 % ID/g
  large intestine uptake: 0.5 ± 0.1 % ID/g
  liver uptake: 5.8 ± 0.6 % ID/g
  lung uptake: 0.5 ± 0.1 % ID/g
  muscle uptake: 0.5 ± 0.7 % ID/g
  pancreas uptake: 0.3 ± 0.1 % ID/g
  small intestine uptake: 0.6 ± 0.2 % ID/g
  spleen uptake: 7.2 ± 1.6 % ID/g
  stomach uptake: 0.25 ± 0.1 % ID/g
[1]; 2 h p.i.
  PC-3 PIP tumor uptake: 3.7 ± 1.2 % ID/g
  PC-3 flu tumor uptake: 0.25 ± 0.1 % ID/g
  PIP tumor:bladder ratio: (0.3)
  PIP tumor:blood ratio: (9)
  PIP tumor:heart ratio: (25)
  PIP tumor:kidney ratio: (0.1)
  PIP tumor:large intestine ratio: (19)
  PIP tumor:liver ratio: (0.3)
  PIP tumor:lung ratio: (4)
  PIP tumor:muscle ratio: (19)
  PIP tumor:pancreas ratio: (25)
  PIP tumor:small intestine ratio: (12)
  PIP tumor:spleen ratio: (1)
  PIP tumor:stomach ratio: (13)
  PIP:flu ratio: 15
  bladder uptake: 11 ± 8 % ID/g
  blood uptake: 0.4 ± 0.2 % ID/g
  heart uptake: 0.15 ± 0.05 % ID/g
  kidney uptake: 29 ± 12 % ID/g
  large intestine uptake: 0.2 ± 0.1 % ID/g
  liver uptake: 11.7 ± 7.0 % ID/g
  lung uptake: 1.0 ± 0.9 % ID/g
  muscle uptake: 0.2 ± 0.1 % ID/g
  pancreas uptake: 0.15 ± 0.03 % ID/g
  small intestine uptake: 0.3 ± 0.2 % ID/g
  spleen uptake: 4.4 ± 1.2 % ID/g
  stomach uptake: 0.3 ± 0.1 % ID/g
[1]; 5 h p.i.
  PC-3 PIP tumor uptake: 3.5 ± 2.3 % ID/g
  PC-3 flu tumor uptake: 0.1 ± 0.1 % ID/g
  PIP tumor:bladder ratio: (0.7)
  PIP tumor:blood ratio: (117)
  PIP tumor:heart ratio: (117)
  PIP tumor:kidney ratio: (0.3)
  PIP tumor:large intestine ratio: (6)
  PIP tumor:liver ratio: (3.5)
  PIP tumor:lung ratio: (35)
  PIP tumor:muscle ratio: (35)
  PIP tumor:pancreas ratio: (70)
  PIP tumor:small intestine ratio: (35)
  PIP tumor:spleen ratio: (3.5)
  PIP tumor:stomach ratio: (88)
  PIP:flu ratio: 35
  bladder uptake: 5.2 ± 8.9 % ID/g
  blood uptake: 0.03 ± 0.00 % ID/g
  heart uptake: 0.03 ± 0.01 % ID/g
  kidney uptake: 14 ± 9 % ID/g
  large intestine uptake: 0.6 ± 0.6 % ID/g
  liver uptake: 1.0 ± 0.6 % ID/g
  lung uptake: 0.1 ± 0.1 % ID/g
  muscle uptake: 0.1 ± 0.1 % ID/g
  pancreas uptake: 0.05 ± 0.03 % ID/g
  small intestine uptake: 0.1 ± 0.04 % ID/g
  spleen uptake: 1.0 ± 0.6 % ID/g
  stomach uptake: 0.04 ± 0.02 % ID/g
[4]
  uptake pattern in PET-CT: easily observed within PIP tumor, none within flu tumor, high renal uptake and a modest degree of liver uptake; also recorded: uptake within the PSMA+ PIP tumor only

## O=C(O)CCC(NC(=O)NC(CCCCNC(=O)c1ccc(NN=Cc2ccc(F)cc2)cc1)C(=O)O)C(=O)O (stereo not drawn) [Compound 12, 2-[3-(1-carboxy-5-{4-[N′-(4-fluoro-benzylidene)-hydrazino]-benzoylamino}-pentyl)-ureido]-pentanedioic acid]
[5]
  stability of compound after preparation: decomposed soon after been made

## O=C(O)CCC(NC(=O)NC(CCCCNC(=O)c1ccc([125I])cc1)C(=O)O)C(=O)O (stereo not drawn) [[^125I]3, 2-{3-[1-carboxy-5-(4-[^125I]iodo-benzoylamino)-pentyl]-ureido}-pentanedioic acid]
[6]
  radiopharmaceutical uptake in SPECT-CT image: intense uptake in the PC-3 PIP and absence of uptake in the PC-3 flu tumor; also recorded: uptake within the PSMA+ PIP tumor only
